In ChEMBL document CHEMBL1201862, “PubChem BioAssay data set” (2004):
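96-well plates; 48 h exposure; 5 concentrations. Endpoints by linear interpolation between flanking doses. Not reached: highest tested concentration assigned. Abbreviation: GI50, concentration required for 50% inhibition of growth.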 Active and inactive are the calls of the source. Cut-off read from the data, not from the text of the source: active = GI50 up to about 1.1 µM and inactive = higher.

Columns and labels:
Assay in all cases: DTP human tumour cell line panel, 48 h
UACC-62 = tested on: UACC-62
SF-268 = tested on: SF-268
DU-145 = tested on: DU-145
SK-OV-3 = tested on: SK-OV-3
MDA-MB-231 = tested on: MDA-MB-231
NCI-H23 = tested on: NCI-H23
KM12 = tested on: KM12
OVCAR-3 = tested on: OVCAR-3
ACHN = tested on: ACHN
MOLT-4 = tested on: MOLT-4
MDA-MB-435 = tested on: MDA-MB-435
SK-MEL-28 = tested on: SK-MEL-28
SN12C = tested on: SN12C
K562 = tested on: K562
HT-29 = tested on: HT-29
BT-549 = tested on: BT-549
IGROV-1 = tested on: IGROV-1
Malme-3M = tested on: Malme-3M
CAKI-1 = tested on: CAKI-1

Measured: GI50

COC(=O)C(Cc1ccc2c(c1)CCC2)Cc1ccc2c(c1)CCC2
inactive: UACC-62 > 100 µM | SF-268 48.6 µM | DU-145 > 100 µM | SK-OV-3 > 100 µM | MDA-MB-231 > 100 µM | NCI-H23 29.6 µM | KM12 37.3 µM | OVCAR-3 85.1 µM | ACHN 68.7 µM | MOLT-4 40.3 µM | MDA-MB-435 48.8 µM | SK-MEL-28 94.4 µM | SN12C > 100 µM | K562 43.1 µM | HT-29 29.4 µM | BT-549 27.1 µM | IGROV-1 > 100 µM

CCc1cccc(C(C)C)c1NC(=O)C(=O)C(C(=O)C(=O)OC)c1nc2ccccc2nc1O (stereo unspecified)
inactive: UACC-62 > 100 µM | Malme-3M > 100 µM | SF-268 > 100 µM | CAKI-1 > 100 µM | SK-OV-3 > 100 µM | NCI-H23 > 100 µM | KM12 > 100 µM | ACHN > 100 µM | MOLT-4 > 100 µM | SK-MEL-28 > 100 µM | SN12C > 100 µM | K562 > 100 µM | HT-29 > 100 µM | IGROV-1 > 100 µM

O=C1O/C(=C\c2ccc(O)c(Br)c2)C(c2ccc(O)cc2)=C1Cl
inactive: UACC-62 16.4 µM | Malme-3M 38.5 µM | SF-268 27.7 µM | DU-145 61.1 µM | CAKI-1 37 µM | SK-OV-3 > 100 µM | NCI-H23 22.4 µM | KM12 34.2 µM | OVCAR-3 27.2 µM | ACHN 49.9 µM | MOLT-4 65.8 µM | MDA-MB-435 33.3 µM | SK-MEL-28 > 100 µM | K562 68.4 µM | HT-29 51.9 µM | IGROV-1 55.6 µM

C[n+]1c(-c2ccc(/C=N/NC(=O)C(=O)N/N=C/c3ccc(-c4cn5ccsc5[n+]4C)cc3)cc2)cn2ccsc21
inactive: SF-268 > 100 µM | SK-OV-3 > 100 µM | MDA-MB-231 > 100 µM | KM12 > 100 µM | ACHN > 100 µM | MOLT-4 > 100 µM | MDA-MB-435 48.2 µM | SK-MEL-28 87.3 µM | SN12C > 100 µM | K562 > 100 µM | HT-29 > 100 µM | IGROV-1 > 100 µM

C[C@@H]1OCC(O)C([C@H]2OC(c3ccccc3)=N[C@H]2CO)O1 (stereo partly specified)
inactive: UACC-62 > 100 µM | Malme-3M > 100 µM | SF-268 > 100 µM | DU-145 > 100 µM | CAKI-1 > 100 µM | SK-OV-3 > 100 µM | MDA-MB-231 > 100 µM | NCI-H23 > 100 µM | KM12 > 100 µM | OVCAR-3 > 100 µM | ACHN > 100 µM | MOLT-4 > 100 µM | MDA-MB-435 > 100 µM | SK-MEL-28 > 100 µM | SN12C > 100 µM | K562 > 100 µM | HT-29 > 100 µM | IGROV-1 > 100 µM

Cc1nnc([C@@]2(C)CC[C@H]3[C@@H](CCC4=CC(=O)CC[C@@]43C)[C@@H]2CC#N)o1
inactive: UACC-62 > 100 µM | Malme-3M > 100 µM | SF-268 > 100 µM | CAKI-1 > 100 µM | SK-OV-3 > 100 µM | MDA-MB-231 > 100 µM | NCI-H23 > 100 µM | KM12 > 100 µM | OVCAR-3 > 100 µM | ACHN > 100 µM | MOLT-4 > 100 µM | MDA-MB-435 > 100 µM | SN12C > 100 µM | K562 > 100 µM | HT-29 > 100 µM | BT-549 > 100 µM | IGROV-1 > 100 µM

CN(C)c1ccc(C=C2C(=O)N(c3ccccc3)N(c3ccccc3)C2=O)cc1
inactive: UACC-62 > 100 µM | Malme-3M > 100 µM | SF-268 > 100 µM | DU-145 > 100 µM | SK-OV-3 > 100 µM | MDA-MB-231 > 100 µM | NCI-H23 > 100 µM | KM12 74.8 µM | OVCAR-3 > 100 µM | ACHN 81.8 µM | MOLT-4 65.6 µM | MDA-MB-435 81.1 µM | SK-MEL-28 > 100 µM | SN12C > 100 µM | K562 61.4 µM | HT-29 72.8 µM | IGROV-1 > 100 µM

Cc1cn(C2CC(COCc3ccccc3)N(CCO[Si](C)(C)C(C)(C)C)O2)c(=O)[nH]c1=O (stereo unspecified)
inactive: UACC-62 11.9 µM | Malme-3M 18.2 µM | SF-268 21.3 µM | DU-145 15.8 µM | CAKI-1 18.5 µM | SK-OV-3 17.6 µM | MDA-MB-231 18.7 µM | NCI-H23 16.2 µM | KM12 17.3 µM | OVCAR-3 15 µM | ACHN 14.9 µM | MOLT-4 5.93 µM | MDA-MB-435 13 µM | SK-MEL-28 16.8 µM | SN12C 11 µM | K562 4.71 µM | HT-29 15.4 µM

N=C/N=C/C(=S)O[C@@H]1C(=O)N2CCC[C@@]23CCCC[C@@H]13
inactive: UACC-62 > 12.5 µM | Malme-3M > 12.5 µM | SF-268 > 12.5 µM | DU-145 > 12.5 µM | CAKI-1 > 12.5 µM | SK-OV-3 > 12.5 µM | MDA-MB-231 > 12.5 µM | NCI-H23 > 12.5 µM | KM12 > 12.5 µM | ACHN > 12.5 µM | MDA-MB-435 > 12.5 µM | SK-MEL-28 > 12.5 µM | SN12C > 12.5 µM | K562 > 12.5 µM | HT-29 > 12.5 µM | IGROV-1 > 12.5 µM

Cc1ccc(C2=C(Cl)C(=O)C(c3ccc(C)cc3)=C(Cl)C2=O)cc1
inactive: UACC-62 > 100 µM | Malme-3M > 100 µM | SF-268 > 100 µM | DU-145 > 100 µM | CAKI-1 > 100 µM | SK-OV-3 > 100 µM | NCI-H23 > 100 µM | KM12 > 100 µM | OVCAR-3 > 100 µM | ACHN > 100 µM | MOLT-4 > 100 µM | MDA-MB-435 > 100 µM | SK-MEL-28 > 100 µM | SN12C > 100 µM | K562 > 100 µM | HT-29 > 100 µM | BT-549 > 100 µM | IGROV-1 > 100 µM

CC(C)=CCC/C(C)=C\CC/C(C)=C/CO
inactive: Malme-3M 18.2 µM | SF-268 37.2 µM | DU-145 27.1 µM | CAKI-1 > 10 µM | MDA-MB-231 42 µM | NCI-H23 23.8 µM | KM12 38.2 µM | OVCAR-3 16.8 µM | ACHN 22.4 µM | MOLT-4 20.5 µM | MDA-MB-435 19.6 µM | SK-MEL-28 44.9 µM | SN12C 41.1 µM | K562 19.7 µM | HT-29 19.7 µM | IGROV-1 24.4 µM

O=c1c(-c2c(-c3ccccc3)oc3ccc(Cl)cc3c2=O)c(-c2ccccc2)oc2ccc(Cl)cc12
inactive: UACC-62 > 82.8 µM | Malme-3M > 100 µM | SF-268 > 49.9 µM | DU-145 > 100 µM | CAKI-1 > 100 µM | SK-OV-3 > 51.4 µM | MDA-MB-231 > 40.3 µM | NCI-H23 > 100 µM | KM12 > 100 µM | OVCAR-3 > 100 µM | ACHN > 75.9 µM | MOLT-4 > 100 µM | MDA-MB-435 > 100 µM | SK-MEL-28 > 100 µM | SN12C > 100 µM | K562 > 100 µM | HT-29 > 100 µM | IGROV-1 > 56.2 µM
